Measurements taken from the supplement of paper PMC10307832.

Columns and labels:
Test in all cases: relative viability (nuclei count vs DMSO), 5 days (fraction); higher = more cells survive
EKVX = tested on: EKVX
How it was run: (§1)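 Relative viability equals treated-well nuclei counts divided by vehicle-well nuclei counts. Counts came from 4× images of lung cancer cell lines grown in 1536-well plates for 5 days after pin-tool dosing on the day after seeding. Dosing used one drug alone or a fixed anchor-drug dose plus five library-drug doses (not always all listed) in √10 steps, and values are medians of duplicate plates.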

NCI-H1395 = tested on: NCI-H1395
How it was run: as §1

NCI-H2023 = tested on: NCI-H2023
How it was run: as §1

NCI-H2342 = tested on: NCI-H2342
How it was run: as §1

NCI-H358 = tested on: NCI-H358
How it was run: as §1

NCI-H460 = tested on: NCI-H460
How it was run: as §1

NCI-H1975 = tested on: NCI-H1975
How it was run: as §1

NCI-H1563 = tested on: NCI-H1563
How it was run: as §1

CAL-12T = tested on: CAL-12T
How it was run: as §1

LCLC-103H = tested on: LCLC-103H
How it was run: as §1

NCI-H1755 = tested on: NCI-H1755
How it was run: as §1

HCC-366 = tested on: HCC-366
How it was run: as §1

NCI-H1734 = tested on: NCI-H1734
How it was run: as §1

HCC-15 = tested on: HCC-15
How it was run: as §1

LOU-NH91 = tested on: LOU-NH91
How it was run: as §1

NCI-H838 = tested on: NCI-H838
How it was run: as §1

NCI-H2085 = tested on: NCI-H2085
How it was run: as §1

NCI-H1651 = tested on: NCI-H1651
How it was run: as §1

NCI-H1650 = tested on: NCI-H1650
How it was run: as §1

NCI-H1437 = tested on: NCI-H1437
How it was run: as §1

BEN = tested on: BEN
How it was run: as §1

NCI-H1355 = tested on: NCI-H1355
How it was run: as §1

NCI-H441 = tested on: NCI-H441
How it was run: as §1

## C[C@@H]1CN(CC(=O)Nc2ccc3c(c2)Cc2cccc(-c4cc(=O)cc(N5CCOCC5)o4)c2S3)C[C@H](C)O1 + Cc1nc(Nc2ncc(C(=O)Nc3c(C)cccc3Cl)s2)cc(N2CCN(CCO)CC2)n1 [Dasatinib] (partner 0.075 µM)
EKVX; first compound 0.04 µM
  relative viability: 0.576
EKVX; first compound 0.1265 µM
  relative viability: 0.568
EKVX; first compound 0.4 µM
  relative viability: 0.603
EKVX; first compound 4 µM
  relative viability: 0.475
NCI-H1395; first compound 0.04 µM
  relative viability: 0.396
NCI-H1395; first compound 0.1265 µM
  relative viability: 0.387
NCI-H1395; first compound 0.4 µM
  relative viability: 0.366
NCI-H1395; first compound 4 µM
  relative viability: 0.368
NCI-H2023; first compound 0.04 µM
  relative viability: 0.638
NCI-H2023; first compound 0.1265 µM
  relative viability: 0.512
NCI-H2023; first compound 0.4 µM
  relative viability: 0.415
NCI-H2023; first compound 4 µM
  relative viability: 0.342
NCI-H2342; first compound 0.04 µM
  relative viability: 0.326
NCI-H2342; first compound 0.1265 µM
  relative viability: 0.292
NCI-H2342; first compound 0.4 µM
  relative viability: 0.29
NCI-H2342; first compound 4 µM
  relative viability: 0.306
NCI-H358; first compound 0.04 µM
  relative viability: 0.2
NCI-H358; first compound 0.1265 µM
  relative viability: 0.163
NCI-H358; first compound 0.4 µM
  relative viability: 0.144
NCI-H358; first compound 4 µM
  relative viability: 0.157
NCI-H460; first compound 0.04 µM
  relative viability: 0.606
NCI-H460; first compound 0.1265 µM
  relative viability: 0.484
NCI-H460; first compound 0.4 µM
  relative viability: 0.427
NCI-H460; first compound 4 µM
  relative viability: 0.339
NCI-H1975; first compound 0.04 µM
  relative viability: 0.378
NCI-H1975; first compound 0.1265 µM
  relative viability: 0.39
NCI-H1975; first compound 0.4 µM
  relative viability: 0.368
NCI-H1975; first compound 4 µM
  relative viability: 0.249
NCI-H1563; first compound 0.04 µM
  relative viability: 0.433
NCI-H1563; first compound 0.1265 µM
  relative viability: 0.429
NCI-H1563; first compound 0.4 µM
  relative viability: 0.445
NCI-H1563; first compound 4 µM
  relative viability: 0.433
CAL-12T; first compound 0.04 µM
  relative viability: 0.515
CAL-12T; first compound 0.1265 µM
  relative viability: 0.535
CAL-12T; first compound 0.4 µM
  relative viability: 0.429
CAL-12T; first compound 4 µM
  relative viability: 0.2
LCLC-103H; first compound 0.04 µM
  relative viability: 0.451
LCLC-103H; first compound 0.1265 µM
  relative viability: 0.436
LCLC-103H; first compound 0.4 µM
  relative viability: 0.405
LCLC-103H; first compound 4 µM
  relative viability: 0.419
NCI-H1755; first compound 0.04 µM
  relative viability: 0.455
NCI-H1755; first compound 0.1265 µM
  relative viability: 0.397
NCI-H1755; first compound 0.4 µM
  relative viability: 0.427
NCI-H1755; first compound 4 µM
  relative viability: 0.37
HCC-366; first compound 0.04 µM
  relative viability: 0.7
HCC-366; first compound 0.1265 µM
  relative viability: 0.636
HCC-366; first compound 0.4 µM
  relative viability: 0.427
HCC-366; first compound 4 µM
  relative viability: 0.529
NCI-H1734; first compound 0.04 µM
  relative viability: 0.475
NCI-H1734; first compound 0.1265 µM
  relative viability: 0.489
NCI-H1734; first compound 0.4 µM
  relative viability: 0.5
NCI-H1734; first compound 4 µM
  relative viability: 0.517
HCC-15; first compound 0.04 µM
  relative viability: 0.659
HCC-15; first compound 0.1265 µM
  relative viability: 0.6
HCC-15; first compound 0.4 µM
  relative viability: 0.531
HCC-15; first compound 4 µM
  relative viability: 0.455
LOU-NH91; first compound 0.04 µM
  relative viability: 0.588
LOU-NH91; first compound 0.1265 µM
  relative viability: 0.51
LOU-NH91; first compound 0.4 µM
  relative viability: 0.476
LOU-NH91; first compound 4 µM
  relative viability: 0.492
NCI-H838; first compound 0.04 µM
  relative viability: 0.27
NCI-H838; first compound 0.1265 µM
  relative viability: 0.233
NCI-H838; first compound 0.4 µM
  relative viability: 0.221
NCI-H838; first compound 4 µM
  relative viability: 0.188
NCI-H2085; first compound 0.04 µM
  relative viability: 0.222
NCI-H2085; first compound 0.1265 µM
  relative viability: 0.245
NCI-H2085; first compound 0.4 µM
  relative viability: 0.235
NCI-H2085; first compound 4 µM
  relative viability: 0.247
NCI-H1651; first compound 0.04 µM
  relative viability: 0.47
NCI-H1651; first compound 0.1265 µM
  relative viability: 0.411
NCI-H1651; first compound 0.4 µM
  relative viability: 0.478
NCI-H1651; first compound 4 µM
  relative viability: 0.348
NCI-H1650; first compound 0.04 µM
  relative viability: 0.31
NCI-H1650; first compound 0.1265 µM
  relative viability: 0.293
NCI-H1650; first compound 0.4 µM
  relative viability: 0.301
NCI-H1650; first compound 4 µM
  relative viability: 0.244
NCI-H1437; first compound 0.04 µM
  relative viability: 0.334
NCI-H1437; first compound 0.1265 µM
  relative viability: 0.34
NCI-H1437; first compound 0.4 µM
  relative viability: 0.387
NCI-H1437; first compound 4 µM
  relative viability: 0.359
BEN; first compound 0.04 µM
  relative viability: 0.308
BEN; first compound 0.1265 µM
  relative viability: 0.265
BEN; first compound 0.4 µM
  relative viability: 0.333
BEN; first compound 4 µM
  relative viability: 0.377
NCI-H1355; first compound 0.04 µM
  relative viability: 0.639
NCI-H1355; first compound 0.1265 µM
  relative viability: 0.723
NCI-H1355; first compound 0.4 µM
  relative viability: 0.604
NCI-H1355; first compound 4 µM
  relative viability: 0.646
NCI-H441; first compound 0.04 µM
  relative viability: 0.762
NCI-H441; first compound 0.1265 µM
  relative viability: 0.46
NCI-H441; first compound 0.4 µM
  relative viability: 0.62
NCI-H441; first compound 4 µM
  relative viability: 0.538
